Assay results as given in PubChem BioAssay AID179 (DTP/NCI, 2004).
Calls of active or inactive are those of the source.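 How the source made its calls: active means compounds giving half or more protection of infected cells from virus-caused growth loss, again on retest; inactive means the rest.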

System: CEM cells HIV-1 protection, formazan growth assay
Test: NCI AIDS Antiviral Assay
Details: for IC50: measured here: growth of uninfected CEM cells
Summary of the method: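 Screen of anti-HIV-1 activity in human CEM cells using a formazan-based growth measurement at five drug concentrations. Hits with 50% or greater protection were repeated, and confirmation required reproducible complete protection.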

## NC(=O)Nc1ccc(C(=O)NCCCNC(=O)c2ccc(NC(N)=O)cc2)cc1
  EC50: > 200 µM
  IC50: > 200 µM

## C[Si](C)(c1ccccc1)C1CC(=O)CC(=O)C1
  EC50: > 380 µM
  IC50: 245 µM

## C=C(Nc1ccc(OC)cc1OC)C(=O)Cc1cccc[n+]1[O-]
  EC50: > 794 µM
  IC50: > 794 µM

## Cc1cn(COCCSc2ccccc2)c(=O)[nH]c1=O
  EC50: > 135 µM
  IC50: 83.2 µM

## Cc1cccc(/C=N\NC(=S)N2CCCCC2)n1
  EC50: > 200 µM
  IC50: 0.0631 µM

## CC1=NOC(C)(O)/C1=N/O (stereo not drawn)
  EC50: > 200 µM
  IC50: 158 µM

## COc1cc(C2[C@H]3C(=O)N(c4ccc(Cc5ccc(N6C(=O)[C@@H]7ON(c8ccccc8)C(c8cc(OC)c(OC)c(OC)c8)[C@@H]7C6=O)cc5)cc4)C(=O)[C@H]3ON2c2ccccc2)cc(OC)c1OC (stereo partly drawn)
  EC50: > 5.62 µM
  IC50: > 5.62 µM

## Cc1cc2c(cc1-c1cc3c(cc1C)C(C(C)C)=C(O)C(=O)/C3=C\Nc1ccccn1)/C(=C/Nc1ccccn1)C(=O)C(O)=C2C(C)C
  EC50: > 100 µM
  IC50: 45.7 µM

## COc1cc(C(=O)O[C@H]2CCC3CCC2N3C)cc(OC)c1OC (stereo partly drawn)
  EC50: > 200 µM
  IC50: > 200 µM

## O=C(OCCN1CCCCC1)C(c1ccccc1)C1(O)CCSCC1 (stereo not drawn)
  EC50: > 200 µM
  IC50: > 200 µM

## COc1ccc(OC)c(C[P+](c2ccccc2)(c2ccccc2)c2ccccc2)c1
  EC50: > 200 µM
  IC50: 1.2 µM

## COC(=O)CCC(NC(=O)C(C)NC(=O)COC1C(O)C(OC(=O)CCNc2c3ccccc3nc3cccc([N+](=O)[O-])c23)OC(OCc2ccccc2)C1NC(C)=O)C(N)=O (stereo not drawn)
  outcome: inactive

## O=[N+]([O-])C(/C=C(\Cl)[N+](=O)[O-])=C1Nc2ccccc2N1
  EC50: > 200 µM
  IC50: 35.5 µM

## CC(Cc1ccc2c(c1)OCO2)N(C)C(=O)C1=CCN(C)CC1 (stereo not drawn)
  EC50: > 200 µM
  IC50: > 200 µM

## NC(Cc1ccc(O)cn1)C(=O)O (stereo not drawn)
  EC50: > 200 µM
  IC50: > 200 µM

## Cc1cc(Cl)ccc1NC(=O)CC1SC(N)=NC1=O (stereo not drawn)
  EC50: > 832 µM
  IC50: > 832 µM

## CN(C)C(=O)N1CC[N+](C)([O-])CC1
  EC50: > 200 µM
  IC50: > 200 µM

## CN(C)c1ccc(N=Nc2ccc3nc[nH]c3c2)cc1
  EC50: > 200 µM
  IC50: 41.7 µM

## CCOP(=O)(OCC)/C(F)=C/c1ccc(F)cc1
  outcome: inactive

## CCOC(=O)/C=C/C1(CCOC(C)=O)CCCCC1
  EC50: > 200 µM
  IC50: 174 µM

## CN(C)C12CCCCCCC1S(=O)(=O)C2 (stereo not drawn)
  EC50: > 363 µM
  IC50: 302 µM

## CC1=NN(c2ccccc2)[As]2ON=C(c3ccc(Cl)cc3)C12 (stereo not drawn)
  outcome: inactive

## COc1ccc(C2CC(c3ccccc3)=Nc3ccccc3S2)cc1 (stereo not drawn)
  EC50: > 51.3 µM
  IC50: 27.5 µM

## NC(C(=O)O)C1=CCCC1 (stereo not drawn)
  EC50: > 200 µM
  IC50: > 200 µM

## O=C1/C(=C/c2ccccc2)CCCC/C1=C\c1ccccc1
  EC50: > 6.92 µM
  IC50: > 6.92 µM

## O=C(CCC(C(=O)OCc1ccccc1)C(=O)OCc1ccccc1)Nc1ccc(OCc2ccccc2)cc1
  EC50: > 200 µM
  IC50: 107 µM

## CCOC(=O)c1nc2cc(C(F)(F)F)ccc2nc1Nc1ccc(F)cc1
  EC50: > 200 µM
  IC50: 12.3 µM

## COC12CCC(C(C(=O)c3ccccc3)=C1C(=O)c1ccccc1)C(O)C2 (stereo not drawn)
  EC50: > 501 µM
  IC50: > 501 µM

## O=C(Nc1ccc([N+](=O)[O-])cc1)N(c1ccccc1)c1cc(N2CCOCC2)ccn1
  EC50: > 200 µM
  IC50: 39.8 µM

## O=c1[nH]c(=O)n(C2CC(O)C(CO)O2)cc1C(OCC(F)(F)F)OCC(F)(F)F (stereo not drawn)
  EC50: > 251 µM
  IC50: 12 µM

## O=C1CCC2CCc3cccc4oc1c2c34 (stereo not drawn)
  outcome: inactive

## CC(=O)OC1C(C)OC(OC2[C@@H]3C=CO[C@@H](OC4OC(CO)C(O)C(O)C4O)[C@@H]3[C@@]3(CO)O[C@@H]23)C(OC(=O)/C=C/c2ccccc2)C1OC(=O)/C=C/c1ccccc1 (stereo partly drawn)
  EC50: > 21.9 µM
  IC50: > 21.9 µM

## CN(C)C1CCC2(CC1)OCCO2
  outcome: inactive

## COc1ccc(C(c2ccccc2)C(C)C(=O)c2c(C)cc(C)cc2C)cc1 (stereo not drawn)
  EC50: > 19.5 µM
  IC50: > 19.5 µM

## Cc1ccc2c(c1N)C(=O)c1ccccc1C2=O
  EC50: > 200 µM
  IC50: 123 µM

## CS(=O)(=O)Nc1ccc2c(c1)N(S(C)(=O)=O)CC2CCl (stereo not drawn)
  EC50: > 200 µM
  IC50: 166 µM

## Cc1ccc2c(/C=C/c3ccc(N(C)C)cc3)ccc(C(C)C)cc1-2
  EC50: > 200 µM
  IC50: 151 µM

## O=C1c2cccc3cccc(c23)C(=O)N1c1ncn[nH]1
  EC50: > 100 µM
  IC50: > 100 µM

## Cc1cc2c(C(C)C)c(O)c(O)c(/C=N\O)c2c(O)c1-c1c(C)cc2c(C(C)C)c(O)c(O)c(/C=N/O)c2c1O
  EC50: > 200 µM
  IC50: 10 µM

## O=C(C1CC2CCN1CC2)N1CCN(C(=O)C2CC3CCN2CC3)CC1 (stereo not drawn)
  EC50: > 200 µM
  IC50: > 200 µM

## N=C1C(=N)c2ccccc2-c2ccccc21.N=C1C(=N)c2ccccc2-c2ccccc21.[Cl-].[Rh+3].c1ccc(-c2ccccn2)nc1
  outcome: inactive

## CC(NC(=O)/C(=C/c1ccccc1)NC(=O)c1ccccc1)C(=O)O (stereo not drawn)
  EC50: > 200 µM
  IC50: > 200 µM

## CCOC(=O)CC(C)C1(C=O)CCCCC1=O (stereo not drawn)
  EC50: > 759 µM
  IC50: > 759 µM

## CC1(C)OC2OC(C(O)CO)C(OC(=S)SSC(=S)OC3C(C(O)CO)OC4OC(C)(C)OC43)C2O1 (stereo not drawn)
  EC50: > 200 µM
  IC50: 36.3 µM

## CCC[CH2][Sn]([CH2]CCC)([CH2]CCC)[CH2]S(=O)(=O)O
  outcome: inactive

## CN(C)c1ccc(/C=C2\C=Nc3ccccc32)cc1
  EC50: > 20.9 µM
  IC50: 14.1 µM

## [Co].[O-]c1cccnc1C=Nc1ccccc1.[OH3+]
  EC50: > 240 µM
  IC50: 35.5 µM

## CCCCCCCCCCCCCCCCCCOCC(CO[P+](=O)O)OCCCCCCCCCCCCCCCCCC (stereo not drawn)
  EC50: > 50.1 µM
  IC50: > 50.1 µM

## O=C1CC(c2c(-c3ccccc3)[nH]c3ccccc23)C(=O)N1c1ccccc1 (stereo not drawn)
  outcome: inactive

## O=[N+]([O-])c1cccc2nccc(NCCN3CCOCC3)c12
  EC50: > 200 µM
  IC50: 10 µM

## ClC(Cl)[Si]12OCCN(CCO1)CCO2
  outcome: inactive

## O=C(NCP(=O)(Oc1ccccc1)Oc1ccccc1)OCc1ccccc1
  EC50: > 200 µM
  IC50: 162 µM

## O=c1[nH]c(=S)[nH]c2nc[nH]c12
  EC50: > 200 µM
  IC50: > 200 µM

## O=Cc1ccccc1OCCOc1cc(OCCOc2ccccc2C=O)c(OCCOc2ccccc2C=O)cc1OCCOc1ccccc1C=O
  EC50: > 1.41 µM
  IC50: > 1.41 µM

## CC(=O)NC(CCCCNCc1ccccc1)C(=O)NCc1ccccc1 (stereo not drawn)
  EC50: > 676 µM
  IC50: > 676 µM

## COC(=O)[C@@H]1Cc2ccc(OC)c(c2)OCCC(=O)N1
  EC50: > 200 µM
  IC50: > 200 µM

## Oc1ccc(C2CC(O)c3ccccc3O2)cc1 (stereo not drawn)
  outcome: inactive

## CN1C(=O)C(C)(O)Sc2ccccc21 (stereo not drawn)
  EC50: > 1200 µM
  IC50: 501 µM

## CCN(CCO)CCNc1ccc(C)c2sc3ccccc3c(=O)c12
  EC50: > 200 µM
  IC50: 2.88 µM

## O=c1c(SCc2ccc(Cl)cc2)c(SCc2ccc(Cl)cc2)cnn1-c1ccccc1
  EC50: > 14.8 µM
  IC50: 3.98 µM

## CCOC(=O)C1(N)CCc2[nH][nH]c(=O)c2C1 (stereo not drawn)
  EC50: > 200 µM
  IC50: > 200 µM

## Nc1nc2c(ccn2[C@H]2C=C[C@@H](CO)C2)c(=O)[nH]1
  EC50: > 275 µM
  IC50: > 275 µM

## O=c1ccn(CC2COC(CP(=O)(O)O)O2)c(=O)[nH]1 (stereo not drawn)
  EC50: > 200 µM
  IC50: > 200 µM

## CC1(C)C2CCC(O)(C2)C1N (stereo not drawn)
  EC50: > 200 µM
  IC50: > 200 µM

## COc1ccccc1NC(=S)Nc1cc(C)cc(C)n1
  EC50: > 200 µM
  IC50: > 200 µM

## O=C(O)c1c(O)c2cc(Br)ccc2oc1=O
  EC50: > 200 µM
  IC50: 120 µM

## CC1(C)S[C@@H]2[C@H](NC(=O)C3(N)CCCCC3)C(=O)N2[C@H]1C(=O)O
  EC50: > 200 µM
  IC50: > 200 µM

## CC(C)CNC(=O)CCc1cccc2c1oc1c(CCN)cccc12
  EC50: > 200 µM
  IC50: 14.8 µM

## COc1ccc(NC(C)=O)c(Cl)c1
  EC50: > 1260 µM
  IC50: > 1260 µM

## O=P(O)(OCCc1ccccc1)Oc1ccccc1O
  EC50: > 200 µM
  IC50: > 200 µM

## CCOP(=O)(OCC)/C(C#N)=C/c1ccc(F)cc1
  EC50: > 891 µM
  IC50: > 891 µM

## O=C1OC(O)C(Oc2ccc(Cl)cc2)=C1Cl (stereo not drawn)
  EC50: > 437 µM
  IC50: 195 µM

## CCN(CC)CCOC(=O)Cc1cccc2c(=O)cc(-c3ccccc3)oc12
  outcome: inactive

## CCn1cnc2c(NC(C)=O)ncnc21
  EC50: > 200 µM
  IC50: > 200 µM

## CC(=O)Nc1ccccc1/C=C/c1ccccn1
  EC50: > 1050 µM
  IC50: 407 µM

## OC[C@@H]1CC#C/C=C\C#CC[C@@H]1CO
  outcome: inactive

## CCc1cc2c(cc1CCCC(=O)O)CC1(Cc3ccc(C(=O)O)cc3C1)C2 (stereo not drawn)
  EC50: > 200 µM
  IC50: 155 µM

## CN(C)c1ncnc2c1ncn2C1OC(CO)C(O)C1O (stereo not drawn)
  outcome: inactive

## C#CCOC(=O)[C@@H](C)c1ccc2cc(OC)ccc2c1
  EC50: > 200 µM
  IC50: 47.9 µM

## N#CC(/C(=N/NC(=O)C(=O)NN)C(=O)Nc1nc([N+](=O)[O-])cs1)c1ccc(Cl)cc1 (stereo not drawn)
  EC50: 95.5 µM
  IC50: 209 µM

## CC(=O)N1c2ccccc2Sc2cc(C(O)(C(F)(F)F)C(F)(F)F)ccc21
  EC50: > 200 µM
  IC50: 13.5 µM

## CN(C)/N=C(\CCN1CCCC1)CC(c1ccccc1)c1c(O)c2ccccc2oc1=O (stereo not drawn)
  EC50: > 39.8 µM
  IC50: > 39.8 µM

## Cc1nc(NCc2ccccc2)c2cc[nH]c2n1
  EC50: > 174 µM
  IC50: 107 µM

## Nc1c(F)c(F)c2c(c1F)N(CCCCCl)c1ccccc1S2
  EC50: > 200 µM
  IC50: 21.9 µM

## O=[N+]([O-])c1cccc([N+](=O)[O-])c1Cl
  EC50: > 200 µM
  IC50: 16.6 µM

## CC(=O)Oc1cc2c(c3ncccc13)OC(C)(C)C2
  EC50: > 200 µM
  IC50: 11 µM

## Cn1nc2ccc([N+](=O)[O-])c(Cn3nnc4ccccc43)c2n1
  EC50: > 200 µM
  IC50: 58.9 µM

## Nc1nnc[se]1
  EC50: > 200 µM
  IC50: 3.63 µM

## COc1cc(Nc2nc3ccc(C(F)(F)F)cc3nc2C(=O)O)cc(OC)c1OC
  EC50: > 200 µM
  IC50: 27.5 µM

## Nc1ccc(N=Nc2ccc(/C=C/c3ccc(N=Nc4ccc(N)c5ccccc45)cc3S(=O)(=O)O)c(S(=O)(=O)O)c2)c2ccccc12
  EC50: > 50.1 µM
  IC50: 37.2 µM

## O=C(CC(O)(C(F)(F)Cl)C(F)(F)Cl)CC(O)(C(F)(F)Cl)C(F)(F)Cl
  outcome: inactive
